Experimental data as given in PMC8689681 (The Journal of Experimental Medicine, 2021).

Molecular target: ADAM17 (Homo sapiens, UniProt P78536)
Experiment: fluorogenic peptide
Format: biochemical

Sequence of ADAM17 (P78536 215-474 limits assumed): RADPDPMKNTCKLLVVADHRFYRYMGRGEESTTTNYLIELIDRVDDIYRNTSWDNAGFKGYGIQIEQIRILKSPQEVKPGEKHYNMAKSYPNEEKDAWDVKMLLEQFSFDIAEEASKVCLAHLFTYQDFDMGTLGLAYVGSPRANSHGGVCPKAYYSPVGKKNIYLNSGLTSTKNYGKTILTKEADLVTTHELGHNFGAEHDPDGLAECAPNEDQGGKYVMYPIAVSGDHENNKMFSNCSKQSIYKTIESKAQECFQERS

**Q.** Which IC50 does the source give for `CC(C)C[C@H](CC(=O)NO)C(=O)N[C@@H](Cc1ccc2ccccc2c1)C(=O)N[C@@H](C)C(=O)NCCN` [TAPI-1] here?
**A.** 128 ± 0.9 nM
